Measurements published in patent publication US10004701B2, “Methods and compositions for treating infection” (UNIVERSITY OF ROCHESTER, priority 2012, dated 2018).
Converted amounts (≈) assume the structure as drawn. Like-named read-outs stand apart in the source and are kept apart here.

Legend:
S. aureus DNA gyrase = biological target: T1, S. aureus DNA gyrase (Staphylococcus aureus, UniProt P0A0K8+P20831); assay: S. aureus DNA gyrase supercoiling assay (TopoGEN); assay type: biochemical
T1 construct: purchased TopoGEN
Experimental: Reactions were incubated at 37° C. for 30 min and then stopped by the addition of 10% SDS, filtered through 0.025 μm Millipore membrane filters in a 10 mM Tris-HCl buffer (pH 8), and electrophoresed in a 1% agarose TAE gel. Gels were stained with 0.5 μg/ml ethidium bromide and images were analyzed using densitometry (Image J, NIH).

S. aureus = assay: Minimum Inhibitory Concentration (MIC) testing, terfenadine study; assay type: cell-based; settings: Staphylococcus aureus, 16 h
[1] = S. aureus, MHB, strain not given, read-out: MIC

T1 sequence (P0A0K8 whole entry): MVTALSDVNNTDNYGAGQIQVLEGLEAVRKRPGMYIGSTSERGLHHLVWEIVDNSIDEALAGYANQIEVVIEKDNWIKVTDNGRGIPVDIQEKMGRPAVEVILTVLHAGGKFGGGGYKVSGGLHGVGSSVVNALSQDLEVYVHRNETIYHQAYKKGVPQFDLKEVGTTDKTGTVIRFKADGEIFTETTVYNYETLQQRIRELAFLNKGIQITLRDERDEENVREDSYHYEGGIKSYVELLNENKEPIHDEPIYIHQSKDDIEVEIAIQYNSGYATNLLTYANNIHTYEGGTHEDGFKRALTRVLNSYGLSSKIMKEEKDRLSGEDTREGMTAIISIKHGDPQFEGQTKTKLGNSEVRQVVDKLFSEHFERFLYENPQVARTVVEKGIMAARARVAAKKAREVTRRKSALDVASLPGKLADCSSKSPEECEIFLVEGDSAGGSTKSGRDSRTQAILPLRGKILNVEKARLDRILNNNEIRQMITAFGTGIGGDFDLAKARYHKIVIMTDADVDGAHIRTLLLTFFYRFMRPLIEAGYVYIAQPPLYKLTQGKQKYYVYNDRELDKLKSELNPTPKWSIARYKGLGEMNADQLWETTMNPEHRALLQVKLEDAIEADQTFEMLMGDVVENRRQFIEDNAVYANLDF
T1 sequence (P20831 whole entry): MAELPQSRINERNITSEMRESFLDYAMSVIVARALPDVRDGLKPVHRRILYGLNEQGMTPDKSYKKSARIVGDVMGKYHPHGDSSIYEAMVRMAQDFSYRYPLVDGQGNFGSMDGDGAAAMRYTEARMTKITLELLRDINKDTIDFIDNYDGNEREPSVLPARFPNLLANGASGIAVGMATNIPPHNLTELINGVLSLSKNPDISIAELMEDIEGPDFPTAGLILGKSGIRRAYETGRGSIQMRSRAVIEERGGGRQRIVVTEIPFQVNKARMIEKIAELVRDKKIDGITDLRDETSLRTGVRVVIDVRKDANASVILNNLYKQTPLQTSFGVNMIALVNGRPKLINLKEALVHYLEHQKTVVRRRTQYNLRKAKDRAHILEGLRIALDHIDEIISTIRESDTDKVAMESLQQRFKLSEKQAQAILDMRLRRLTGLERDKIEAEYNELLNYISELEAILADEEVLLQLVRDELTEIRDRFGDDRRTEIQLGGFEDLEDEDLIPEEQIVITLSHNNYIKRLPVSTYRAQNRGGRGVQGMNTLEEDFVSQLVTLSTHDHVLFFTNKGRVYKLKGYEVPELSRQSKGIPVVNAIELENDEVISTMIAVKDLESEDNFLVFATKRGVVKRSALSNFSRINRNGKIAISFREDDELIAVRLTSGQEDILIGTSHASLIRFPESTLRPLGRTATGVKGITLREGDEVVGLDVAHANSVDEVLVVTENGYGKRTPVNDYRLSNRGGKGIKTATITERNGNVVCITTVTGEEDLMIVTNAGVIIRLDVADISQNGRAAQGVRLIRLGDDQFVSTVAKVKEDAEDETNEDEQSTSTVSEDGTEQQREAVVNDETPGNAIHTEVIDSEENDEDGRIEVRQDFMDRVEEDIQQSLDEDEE

| SMILES | IC50 (S. aureus DNA gyrase) [µM] | MIC (S. aureus) [µg/mL] | MIC (S. aureus; [1]) [µg/mL] |
| --- | --- | --- | --- |
| CC(C)(C)c1ccc(C(O)CCCCN2CCC(C(O)(c3ccccc3)c3ccccc3)CC2)cc1 (stereo not shown) [Compound 2, 1-(4-(tert-butyl)phenyl)-5-(4-(hydroxydiphenylmethyl)piperidin-1-yl)pentan-1-ol] | 206 | 16 (≈ 32.9 µM) |  |
| OC(CCCN1CCC(C(O)(c2ccccc2)c2ccccc2)CC1)c1ccc(Cl)cc1 (stereo not shown) [Compound 4, 1-(4-chlorophenyl)-4-(4-(hydroxydiphenylmethyl)piperidin-1-yl)butan-1-ol] | 296 | 64 (≈ 142 µM) |  |
| OC(CCCN1CCC(C(O)(c2ccccc2)c2ccccc2)CC1)c1ccccc1 (stereo not shown) [Compound 6, 4-(4-(hydroxydiphenylmethyl)piperidin-1-yl)-1-phenylbutan-1-ol] | > 1200 | 256 (≈ 616 µM) |  |
| COc1ccc(C(O)CCCN2CCC(C(O)(c3ccccc3)c3ccccc3)CC2)cc1 (stereo not shown) [Compound 7, 4-(4-(hydroxydiphenylmethyl)piperidin-1-yl)-1-(4-methoxyphenyl)butan-1-ol] | > 1120 | 256 (≈ 575 µM) |  |
| OC(CCCN1CCC(C(O)(c2ccccc2)c2ccccc2)CC1)c1ccc(F)cc1 (stereo not shown) [Compound 8, 1-(4-fluorophenyl)-4-(4-(hydroxydiphenylmethyl)piperidin-1-yl)butan-1-ol] | > 1150 | 128 (≈ 295 µM) |  |
| OC(CCCN1CCC(C(O)(c2ccccc2)c2ccccc2)CC1)c1ccc(Br)cc1 (stereo not shown) [Compound 9, 1-(4-bromophenyl)-4-(4-(hydroxydiphenylmethyl)piperidin-1-yl)butan-1-ol] | > 1010 | 32 (≈ 64.7 µM) |  |
| CC(C)(C)c1ccc(CCCCN2CCC(C(O)(c3ccccc3)c3ccccc3)CC2)cc1 [Compound 10, (1-(4-(4-(tert-butyl)phenyl)butyl)piperidin-4-yl)diphenylmethanol] | 205 | 8 (≈ 17.6 µM) |  |
| Cc1ccc(C(O)CCCN2CCC(C(O)(c3ccccc3)c3ccccc3)CC2)cc1 (stereo not shown) [Compound 14, 4-(4-(hydroxydiphenylmethyl)piperidin-1-yl)-1-(p-tolyl)butan-1-ol] | > 1160 | 128 (≈ 298 µM) |  |
| CC(C)(C)c1ccc(C(O)CN2CCC(C(O)(c3ccccc3)c3ccccc3)CC2)cc1 (stereo not shown) [Compound 17, 1-(4-(tert-butyl)phenyl)-2-(4-(hydroxydiphenylmethyl)piperidin-1-yl)ethanol] |  |  | 16 (≈ 36.1 µM) |
| COC(=O)c1ccc(C(O)CCCN2CCC(C(O)(c3ccccc3)c3ccccc3)CC2)cc1 (stereo not shown) [Compound 18, Methyl 4-(1-hydroxy-4-(4-(hydroxydiphenylmethyl)piperidin-1-yl)butyl)benzoate] | 929 | 256 (≈ 541 µM) |  |
| O=C(O)c1ccc(C(O)CCCN2CCC(C(O)(c3ccccc3)c3ccccc3)CC2)cc1 (stereo not shown) [Compound 19, 4-(1-hydroxy-4-(4-(hydroxydiphenylmethyl)piperidin-1-yl)butyl)benzoic acid] | > 1090 | > 256 |  |
| CC(C)(C)c1ccc(C(=O)CN2CCC(C(O)(c3ccccc3)c3ccccc3)CC2)cc1 [Compound 20, 1-(4-(tert-butyl)phenyl)-2-(4-(hydroxydiphenylmethyl)piperidin-1-yl)ethanone] |  | > 256 |  |
| CC(C)(C)c1ccc(C(=O)CCN2CCC(C(O)(c3ccccc3)c3ccccc3)CC2)cc1 [Compound 21, 1-(4-(tert-butyl)phenyl)-3-(4-(hydroxydiphenylmethyl)piperidin-1-yl)propan-1-one] | 198 | 32 (≈ 70.2 µM) |  |
| CC(C)(C)c1ccc(CCCN2CCC(C(O)(c3ccccc3)c3ccccc3)CC2)cc1 [Compound 22, (1-(3-(4-(Tert-butyl)phenyl)propyl)piperidin-4-yl)diphenylmethanol] | 211 | 8 (≈ 18.1 µM) |  |
| CC(C)(C)c1ccc(CCN2CCC(C(O)(c3ccccc3)c3ccccc3)CC2)cc1 [Compound 23, (1-(4-(Tert-butyl)phenethyl)piperidin-4-yl)diphenylmethanol] | 218 | 8 (≈ 18.7 µM) |  |
| CC(C)(C)c1ccc(C(N)CCCN2CCC(C(O)(c3ccccc3)c3ccccc3)CC2)cc1 (stereo not shown) [Compound 24, (1-(4-amino-4-(4-(tert-butyl)phenyl)butyl)piperidin-4-yl)diphenylmethanol] |  | 16 (≈ 34 µM) |  |
| OC(CCCN1CCC(C(O)(c2ccccc2)c2ccccc2)CC1)c1ccc(-c2ccccc2)cc1 (stereo not shown) [Compound 25, 1-([1,1′-biphenyl]-4-yl)-4-(4-(hydroxydiphenylmethyl)piperidin-1-yl)butan-1-ol] | 27.1 | 8 (≈ 16.3 µM) |  |
| CC(C)(C)c1ccc(CN2CCC(C(O)(c3ccccc3)c3ccccc3)CC2)cc1 [Compound 26, (1-(4-(tert-butyl)benzyl)piperidin-4-yl)diphenylmethanol] | 218 |  |  |
| CC(C)(C)c1ccc(C(=O)N2CCC(C(O)(c3ccccc3)c3ccccc3)CC2)cc1 [Compound 27, (4-(tert-butyl)phenyl)(4-(hydroxydiphenylmethyl)piperidin-1-yl)methanone] | 218 | > 256 |  |
| COc1ccc(CCN2CCC(C(O)(c3ccccc3)c3ccccc3)CC2)cc1 [Compound 28, (1-(4-methoxyphenethyl)piperidin-4-yl)diphenylmethanol] | > 829 | 256 (≈ 638 µM) |  |
| O=[N+]([O-])c1ccc(CCN2CCC(C(O)(c3ccccc3)c3ccccc3)CC2)cc1 [Compound 29, (1-(4-nitrophenethyl)piperidin-4-yl)diphenylmethanol] | 632 | 64 (≈ 154 µM) |  |
| OC(c1ccccc1)(c1ccccc1)C1CCN(CCc2ccc(Br)cc2)CC1 [Compound 30, (1-(4-bromophenethyl)piperidin-4-yl)diphenylmethanol] | 548 | 16 (≈ 35.5 µM) |  |
| OC(c1ccccc1)(c1ccccc1)C1CCN(CCc2ccc(-c3ccccc3)cc2)CC1 [Compound 32, (1-(2-([1,1′-biphenyl]-4-yl)ethyl)piperidin-4-yl)diphenylmethanol] | 179 |  | 8 (≈ 17.9 µM) |
| OC(c1ccccc1)(c1ccccc1)C1CCN(CCc2ccc(-c3ccncc3)cc2)CC1 [Compound 33, Diphenyl(1-(4-(pyridin-4-yl)phenethyl)piperidin-4-yl)methanol] | 208 | 32 (≈ 71.3 µM) |  |
| Nc1ccc(CCN2CCC(C(O)(c3ccccc3)c3ccccc3)CC2)cc1 [Compound 34, (1-(4-aminophenethyl)piperidin-4-yl)diphenylmethanol] | 241 | 256 (≈ 662 µM) |  |
| OC(c1ccccc1)(c1ccccc1)C1CCN(CCc2ccc(-c3cccnc3)cc2)CC1 [Compound 35, Diphenyl(1-(4-(pyridin-3-yl)phenethyl)piperidin-4-yl)methanol] | 557 | 32 (≈ 71.3 µM) |  |
| CN(C)c1ccc(CCN2CCC(C(O)(c3ccccc3)c3ccccc3)CC2)cc1 [Compound 36, (1-(4-(Dimethylamino)phenethyl)piperidin-4-yl)diphenylmethanol] | > 803 | 256 (≈ 617 µM) |  |
| OC(c1ccccc1)(c1ccccc1)C1CCN(CCc2ccc(F)cc2)CC1 [Compound 38, (1-(4-Fluorophenethyl)piperidin-4-yl)diphenylmethanol] | > 855 | 128 (≈ 329 µM) |  |
| CC(C)(C)c1cccc(CCN2CCC(C(O)(c3ccccc3)c3ccccc3)CC2)c1 [Compound 39, (1-(3-(Tert-butyl)phenethyl)piperidin-4-yl)diphenylmethanol] | 218 | 16 (≈ 37.4 µM) |  |
| CC(C)(C)c1ccc(OCCCN2CCC(C(O)(c3ccccc3)c3ccccc3)CC2)cc1 [Compound 42, (1-(3-(4-(Tert-butyl)phenoxy)propyl)piperidin-4-yl)diphenylmethanol] | 219 |  |  |
